Reference: US20260242320A1, “USE OF CANNABIDIOL DERIVATIVE IN PREPARATION OF MEDICAMENT” (priority 2023, published 2026)

How the values were obtained:
BV-2 cells = assay: Cellular ATP assay; assay type: cell-based; conditions: 10 μM, 2 h
Description: BV-2 cells were seeded at a density of 5×10^5 cells per well in 6-well plates and incubated for 24 h. BV-2 cells were treated with 10 μM CIAC001 or 10 μM Compound 19b for 2 h. Cellular ATP was measured by an enhanced ATP assay kit (S0027-4, Beyotime Biotechnology Co., Ltd., Shanghai, China).

[1] = system: hippocampus of transgene mice; assay: Potential of hippocampus (LTP) measurement; assay type: in vivo
Description: Mouse brains were quickly removed following anesthetization using isoflurane and euthanasia by cervical dislocation and immersed in pre-chilled artificial cerebrospinal fluid (ACSF) for 3 minutes while continuously supplying O2 to the fluid to maintain brain activity. Then, the brain was then quickly fixed with glue onto a platform of a vibratome (with the olfactory bulb facing up and the hindbrain facing down) and placed in well-oxygenated, pre-chilled ACSF. The brain was then sliced at 300 μm per slice with a cutting speed of 0.14 mm/s, starting from the appearance of the hippocampus. The collected brain slices were divided into left and right hemispheres and incubated in an O2-filled water bath at 32° C. for 2 hours. Afterwards, computer software used for recording was adjusted to ensure a stable baseline. The incubated brain slices were placed in the center of an electrode, with the brightest line of the CA1 region in the hippocampus spanning diagonally across the baseline, and fixed with a grid and iron block inside the recording device. Each potential in the electrode was stimulated to find the optimal stimulation point. High-frequency stimulation was then performed at the optimal point. Software was then used to record the changes in electrical potential at each electrode point.

[2] = system: 3×Tg Alzheimer's disease mice; assay: Learning and memory tests in Alzheimer's disease model mice (Morris water maze, Y-maze); assay type: in vivo; conditions: i.p., 45 days
Description: For Alzheimer's disease behavioral experiments (Morris water maze, open field experiment, novel object recognition, Y-maze, and elevated cross maze), triple transgenic mouse models (B6:129-Psen1tm1Mpm Tg (APPswe, tauP301L) 1Lfa/J, 3×Tg) were purchased from the Jax Laboratory in the United States. The wild-type mice (C57BL/6J, WT) were purchased from Beijing Vital River Laboratory Animal Technology Co., Ltd. After 45 days of intraperitoneal injection of CIAC001, all mice were subjected to subsequent behavioral experiments. In order to minimize the use of mice, the mice are first tested for sufficient physical strength and normal mental states. Only one behavioral experiment is conducted per day based on the following schedule: day 1: open field test; day 2-3: novel object recognition; day 3: elevated plus maze; day 4: Y-maze; day 5-13: Morris water maze. […]
Place navigation training was performed from days 1 to 5. […] The time taken for the mouse to find the platform was recorded, representing the mouse's escape latency. […]
The spatial exploration test was conducted 24 hours and 72 hours after completion of place navigation training. The test conducted at 24 hours assessed short-term memory, while the test performed at 72 hours assessed long-term memory. […]

Open field test = assay type: in vivo, mice; conditions: 20 mg/kg i.p., seven consecutive days
Description: After two days of habitation, each mouse was placed in the open field, and the moving distances within 1 h and the grooming and rubbing numbers within the first 15 min was recorded as vehicle control (pre-test group). Next, each mouse was administered CIAC001 (20 mg/kg; i.p.) once daily for 7 days. 24 h after the last administration, the moving distances and the grooming and rubbing numbers were measured again to compare changes before and after CIAC001 treatment.

C=C(C)[C@@H]1CCC(C)=C[C@H]1c1c(O)cc(C(C)n2nccn2)cc1O (stereo partly drawn) [CIAC001, (1′R,2′R)-4-(1-(2H-1,2,3-Triazol-2-yl)ethyl)-5′-methyl-2′-(prop-1-en-2-yl)-1′,2′,3′,4′-tetrahydro-[1,1′-biphenyl]-2,6-diol]
ATP level (BV-2 cells): increase the ATP level
increase of hippocampal potential [1]: ~500%
learning and memory abilities of Alzheimer's disease mice [2]: improves learning and memory abilities of Alzheimer's disease mice at a lower dose than cannabidiol
grooming and rubbing behaviors (open field) (Open field test): No apparent differences
motor activity (open field) (Open field test): No apparent differences
